Laboratory results taken from ChEMBL document CHEMBL1134242 (Bioorg Med Chem Lett, 2001).

Experiments:
[1] = biological target: Sodium-dependent dopamine transporter (Rattus norvegicus, UniProt P23977); assay: Ability to inhibit binding of [3H]WIN-35428 to dopamine transporter in rat caudate putamen; type: tissue-based
[2] = organism: Rattus norvegicus; assay: Ability to inhibit high-affinity uptake of [3H]DA into striatal nerve endings (synaptosomes); type: functional; conditions: Brain
[3] = biological target: Sodium-dependent serotonin transporter (Rattus norvegicus, UniProt P31652); assay: Ability to inhibit binding of [3H]paroxetine to Serotonin transporter in rat caudate putamen; type: tissue-based
Sodium-dependent serotonin transporter, sequence (P31652 whole entry): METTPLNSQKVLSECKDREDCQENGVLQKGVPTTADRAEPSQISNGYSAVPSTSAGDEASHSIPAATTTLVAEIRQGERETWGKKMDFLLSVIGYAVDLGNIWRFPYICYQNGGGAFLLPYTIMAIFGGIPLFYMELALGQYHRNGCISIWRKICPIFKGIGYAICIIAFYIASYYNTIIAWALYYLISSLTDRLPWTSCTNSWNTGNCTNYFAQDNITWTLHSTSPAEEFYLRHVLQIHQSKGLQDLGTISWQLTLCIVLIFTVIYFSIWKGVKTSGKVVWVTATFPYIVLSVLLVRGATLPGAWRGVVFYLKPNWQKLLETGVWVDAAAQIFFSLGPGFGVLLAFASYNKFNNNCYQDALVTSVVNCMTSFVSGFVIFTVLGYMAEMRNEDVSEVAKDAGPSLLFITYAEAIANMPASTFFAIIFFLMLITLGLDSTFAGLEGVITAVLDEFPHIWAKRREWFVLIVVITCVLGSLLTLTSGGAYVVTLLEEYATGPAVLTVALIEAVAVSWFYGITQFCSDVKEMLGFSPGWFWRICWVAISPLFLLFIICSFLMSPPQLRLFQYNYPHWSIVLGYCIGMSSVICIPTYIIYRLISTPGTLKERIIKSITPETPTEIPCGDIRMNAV

Sodium-dependent dopamine transporter, sequence (P23977 whole entry): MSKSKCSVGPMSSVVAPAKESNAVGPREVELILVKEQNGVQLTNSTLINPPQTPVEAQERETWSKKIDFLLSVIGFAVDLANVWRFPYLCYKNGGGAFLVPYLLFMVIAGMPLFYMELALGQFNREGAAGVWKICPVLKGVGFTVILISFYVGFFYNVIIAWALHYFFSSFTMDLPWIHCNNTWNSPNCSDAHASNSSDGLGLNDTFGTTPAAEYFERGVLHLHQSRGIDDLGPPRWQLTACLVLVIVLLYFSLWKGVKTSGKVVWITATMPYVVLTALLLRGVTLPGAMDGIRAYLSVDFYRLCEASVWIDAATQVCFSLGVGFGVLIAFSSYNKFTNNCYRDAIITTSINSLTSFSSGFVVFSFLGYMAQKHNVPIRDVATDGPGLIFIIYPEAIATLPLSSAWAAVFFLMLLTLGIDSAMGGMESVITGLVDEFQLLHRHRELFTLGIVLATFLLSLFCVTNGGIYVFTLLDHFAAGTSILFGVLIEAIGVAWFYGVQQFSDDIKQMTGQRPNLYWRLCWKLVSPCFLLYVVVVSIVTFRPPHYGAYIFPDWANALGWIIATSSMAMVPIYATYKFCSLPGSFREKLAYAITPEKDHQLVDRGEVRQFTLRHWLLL

Compound | IC50 [1] [nM] | IC50 [2] [nM] | IC50 [3] [nM]
CO[C@H]1CC2C[C@H](OC(c3ccccc3)c3ccc(Cl)cc3)CC1N2C (stereo partly drawn) | 750 | 519 | > 100000
CO[C@@H]1CC2C[C@@H](OC(c3ccccc3)c3ccc(Cl)cc3)CC1N2C (stereo partly drawn) | 32 | 179 | > 100000
c1ccc(C(O[C@H]2C[C@H]3CC[C@@H](C2)O3)c2ccccc2)cc1 | > 10000 | – | –
Fc1ccc(C(O[C@H]2C[C@H]3CC[C@@H](C2)O3)c2ccc(F)cc2)cc1 | 2000 | – | –
CO[C@H]1CC2C[C@H](OC(c3ccc(F)cc3)c3ccc(F)cc3)CC1N2C (stereo partly drawn) | 95 | 165 | > 100000
CO[C@@H]1CC2C[C@@H](OC(c3ccc(F)cc3)c3ccc(F)cc3)CC1N2C (stereo partly drawn) | 25 | 104 | > 100000
CO[C@H]1CC2C[C@H](OC(c3ccccc3)c3ccccc3)CC1N2C (mixture of isomers) | 650 | 2280 | > 100000
COC(=O)[C@@H]1C2CC[C@@H](C[C@@H]1OC(=O)c1ccccc1)N2C (single isomer, unassigned) [COCAINE] | – | 208 | –
